Measured values reported in patent US20250122160A1, “PROTEIN TYROSINE PHOSPHATASE INHIBITORS AND METHODS OF USE THEREOF” (Calico Life Sciences LLC, priority 0001, published 2025).

Assays:
[1] = tested on: MC-38 murine colon adenocarcinoma; assay: In vivo efficacy in MC38 mouse tumor model
Procedure: All experiments were conducted in compliance with AbbVie's Institutional Animal Care and Use Committee and the National Institutes of Health Guide for Care and Use of Laboratory Animals guidelines in a facility accredited by the Association for the Assessment and Accreditation of Laboratory Animal Care. C57Bl/6 female mice were obtained from Charles River (Wilmington, MA). The mice were group-housed 10 per cage. Food and water were available ad libitum. Animals were acclimated to the animal facilities for a period of at least one week prior to commencement of experiments. Animals were tested in the light phase of a 12-hour light:12-hour dark schedule (lights on 0600 hours).
Cells were grown to passage 3 in vitro. A total of 1×10^5 viable MC-38 cells were inoculated subcutaneously into the right flank of female C57Bl/6 mice (7-12 weeks old) on Day 0. […] Tumor volume was calculated three times weekly. Measurements of the length (L) and width (W) of the tumor were taken via electronic caliper and the volume was calculated according to the following equation: V=L×W^2/2 using Study Director Version 3.1.399.22 (Studylog Systems, Inc, CA, USA). […] Tumor growth inhibition (TGI) was calculated as TGI=1−(Mean TVTimepoint(Treatment)/Mean TVTimepoint(Vehicle)) for each timepoint that tumor volumes were measured. […]

IP10 = assay: Cytokine measurement in mouse plasma (IP10); format: in vivo; details: day 8 of dosing
Procedure: Whole blood was drawn into EDTA powder coated tubes by cardiac puncture from mice on day 8 of dosing with Compound 118 (2 hours after the 16th dose) and plasma was prepared by centrifugation. Cytokines in plasma were measured using the Th1/Th2 Cytokine & Chemokine 20-Plex Mouse ProcartaPlex™ Panel 1 (Invitrogen, Carlsbad, CA). IP10 levels (pg/mL) in vehicle or Compound 118 treated animals were reported.

[2] = biological target: T1, His tagged full-length PTPN1 protein (Homo sapiens, UniProt P18031); assay: Mobility shift assay (MSA) to determine potency of PTPN1 inhibitors; format: biochemical; details: 0.5 nM enzyme, 2 μM substrate
T1 construct: made in house
T1 sequence (P18031 with tags, fused parts or gaps): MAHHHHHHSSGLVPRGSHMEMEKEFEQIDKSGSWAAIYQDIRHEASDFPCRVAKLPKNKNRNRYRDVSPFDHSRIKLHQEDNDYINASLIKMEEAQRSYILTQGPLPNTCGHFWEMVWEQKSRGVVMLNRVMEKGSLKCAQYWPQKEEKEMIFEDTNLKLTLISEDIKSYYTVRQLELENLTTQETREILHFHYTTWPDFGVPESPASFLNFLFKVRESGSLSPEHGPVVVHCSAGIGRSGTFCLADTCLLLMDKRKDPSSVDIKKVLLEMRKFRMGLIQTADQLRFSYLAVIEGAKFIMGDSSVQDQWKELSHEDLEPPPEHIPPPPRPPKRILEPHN
Outline: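 His-tagged full-length human PTPN1 (0.5 nM) preincubated with compound 10 min at room temperature in pH 7.5 HEPES buffer with EGTA, EDTA, Tween 20 and DTT. Dephosphorylation of 2 μM fluorescent phospho-insulin-receptor peptide over 10 min measured by mobility shift. IC50 from % inhibition across a 12-point, 1:3 dilution series.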

[3] = tested on: Granzyme B+ cells within CD8+ T cells; assay: Granzyme B staining of CD8 T cells flow cytometry assay in mouse spleen; format: in vivo; details: day 8 of dosing
Procedure: Mice were sacrificed on day 8 of dosing with Compound 118 (2 hours after the 16th dose) and spleens were excised. Spleens were dissociated with a gentleMACS dissociator (Miltenyi Biotec. Bergisch Gladbach. Germany), red blood cells lysed, and single cell suspensions were prepared. Splenocytes were stained with Zombie UV™ Fixable Viability kit (Biolegend. San Diego, CA) diluted in Dulbecco's PBS for 10 minutes at room temperature to exclude dead cells followed by staining for surface markers for 45 minutes on ice using the following flow cytometry antibodies diluted in autoMACS Running Buffer (Miltenyi Biotec. Bergisch Gladbach, Germany); Brilliant Violet 510)-labeled anti-CD45. Brilliant Ultraviolet 395-labeled anti-CD3. Brilliant Violet 786-labeled anti-CD4. APC/Cy7-labeled anti-CD8. Cells were washed twice with autoMACS Running Buffer, permeabilized with Fixation/Permeabilization buffer (FoxP3/Transcription Factor Staining Buffer Set; eBioscience) and stained intracellularly with PE-labeled anti-Granzyme B antibody diluted in Permeabilization buffer (FoxP3/Transcription Factor Staining Buffer Set; eBioscience, San Diego, CA) for 1 hour on ice. After staining, cells were washed twice with autoMACS Running Buffer, and the samples were acquired on a BD LSRFortessa™ X20 flow cytometers (BD Biosciences, San Jose, CA) and analyzed with FLowJo V10 software (FlowJo, Ashland, OR). […]

pSTAT5 in CD3+ T cells = assay: pSTAT5 flow cytometry assay in mouse whole blood; format: in vivo; details: day 8 of dosing
Procedure: Whole blood was drawn into EDTA powder coated tubes by cardiac puncture from mice on day 8 of dosing with Compound 118 (2 hours after the 16th dose). 90 μL of whole blood were stimulated with 10 μL of murine IL-2 to achieve a final concentration of 100 ng IL-2/mL (R&D Systems. Minneapolis, MN, cat #402-ML) for 20 minutes at 37° C. 5% CO2. After stimulation. 1.8 mL of prewarmed BD Phosflow Lyse/Fix Buffer (BD Biosciences. San Jose. CA) was added for 20 minutes at 37° C. Cells were washed twice in FACS buffer (Dulbecco's PBS with 0.2% BSA) and incubated for 30 minutes on ice in cold Perm Buffer III (BD Biosciences. San Jose. CA). Cells were washed with FACS buffer and resuspended in 50 μL of FACS buffer with antibodies and stained for 3 hours at room temperature with gentle shaking. […] After staining, cells were washed twice with FACS buffer, and the samples were acquired on a BD LSRFortessa™ X20 flow cytometers (BD Biosciences. San Jose, CA) and analyzed with FLowJo V10 software (FlowJo, Ashland, OR). The mean fluorescence intensity (MFI) of pSTAT5 as a measure of the amount of phosphorylated STAT5 in the CD3+ T cell population from vehicle or Compound 118 treated animals was reported.

[4] = tested on: B16F10 mouse melanoma cells; assay: B16F10 IFNγ-induced cellular growth inhibition assay; format: cell-based; details: B16-F10, with 0.5 ng/ml IFNγ, read-out: B16F10 GI IC50
Procedure: B16F10 mouse melanoma cells (ATCC Cat #CRL-6475, Manassas, VA) were seeded at a density of 500 cells per well in a 384-well clear bottom plate (Corning Cat #3765, Corning, NY) in 25 μL total volume of DMEM+10% FBS (Sigma Cat #D6429 and Sigma Cat #F4135, St. Louis, MO). Cells were allowed to adhere overnight at 37° C.+5% CO2. On the following day, 12.5 μL of mouse IFNγ (RD systems Cat #485-MI/CF, Minneapolis, MN) was added to half of the plate (columns 13-24) at a concentration of 2 ng/ml for a final assay concentration of 0.5 ng/ml of IFNγ. Media only (12.5 μL of DMEM+10% FBS) was added to the remainder of the plate (columns 1-12). Next, compounds resuspended in DMSO (Sigma Cat #D2650) at 100 mM were diluted in semi-log dilutions in DMSO ranging from 100 mM to 0.001 mM and DMSO only controls were included. The compound/DMSO dilutions were further diluted 1:250 in DMEM+10% FBS, and 12.5 μL of these dilutions were added in triplicates to cells of both treatment arms (with and without IFNγ). Final compound concentrations ranged from 100 μM to 0.001 μM with a final DMSO concentration of 0.1%. […] Confluence over time for compound dilutions in the presence and absence of IFNγ was measured. […] At these time points, for each compound the percent growth inhibition at every compound dose level was calculated relative to the “DMSO/with IFNγ” control and used to determine the IC50.

[5] = biological target: T2, His tagged PTPN2 (TC45) protein (Homo sapiens, UniProt P17706); assay: Mobility shift assay (MSA) to determine potency of PTPN2 inhibitors; format: biochemical; details: 0.5 nM enzyme, 2 μM substrate
T2 construct: made in house
T2 sequence (P17706 with tags, fused parts or gaps isoform P17706-2): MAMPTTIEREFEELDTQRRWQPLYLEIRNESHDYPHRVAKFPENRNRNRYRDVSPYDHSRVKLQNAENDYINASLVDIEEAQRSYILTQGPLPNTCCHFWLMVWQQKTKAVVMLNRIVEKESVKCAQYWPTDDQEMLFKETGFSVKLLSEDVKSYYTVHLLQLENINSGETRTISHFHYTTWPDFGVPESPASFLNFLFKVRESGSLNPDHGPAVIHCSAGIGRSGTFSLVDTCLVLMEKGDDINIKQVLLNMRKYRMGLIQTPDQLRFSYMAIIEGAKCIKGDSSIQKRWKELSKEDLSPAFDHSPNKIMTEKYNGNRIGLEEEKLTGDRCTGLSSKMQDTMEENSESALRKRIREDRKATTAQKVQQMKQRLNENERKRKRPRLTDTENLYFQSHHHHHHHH
Outline: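 His-tagged human PTPN2 (TC45), 0.5 nM, preincubated 10 min at room temperature with compound (12-point, 1:3 dilutions) in HEPES pH 7.5 buffer with EGTA, EDTA, Tween 20 and DTT. Then 2 μM OG488-labelled phospho-insulin-receptor peptide was added for 10 min and quenched. % conversion was read by mobility shift, and IC50 came from % inhibition.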

## CC(C)CCN[C@@H]1CCc2cc(O)c(N3CC(=O)NS3(=O)=O)c(F)c2C1 (single isomer, unassigned) [Compound 118]
[1]; 10 mg/kg/dose oral BID for 21 days
  tolerability: well tolerated, without obvious adverse health events
[1]; within 7-10 days of treatment
  tumor response observed: apparent tumor stasis and shrinkage
IP10
  IP10 levels in plasma, fold higher than vehicle control: 1.7 fold
[2]
  IC50: 1 to 10 nM
[3]
  frequency of granzyme B producing cells within CD8+ T population in spleen, fold higher than vehicle control: 3.9 fold
pSTAT5 in CD3+ T cells
  pSTAT5 levels in whole blood T cells, fold higher than vehicle control: 1.6 fold

## CC(C)(C)O[C@H]1C[C@@H](CCNC2CCc3cc(O)c(N4CC(=O)NS4(=O)=O)c(F)c3C2)C1 (some centres unmarked) [Compound 234]
[4]
  IC50: 1000 to 10000 nM
[5]
  IC50: 10 to 100 nM
[2]
  IC50: 1 to 10 nM

## CC(C)OCCCN1CCc2cc(O)c(N3CC(=O)NS3(=O)=O)c(F)c2C1 [Compound 251]
[5]
  IC50: 10 to 100 nM
[2]
  IC50: 10 to 100 nM

## Cc1n[nH]c(C)c1CCN1Cc2c(cc(O)c(N3CC(=O)NS3(=O)=O)c2F)C(F)(F)C1 [Compound 320]
[5]
  IC50: > 100 nM
[2]
  IC50: > 100 nM

## O=C1CN(c2c(O)cc3c(c2F)CN(c2ccccn2)CC3)S(=O)(=O)N1 [Compound 191]
[5]
  IC50: 10 to 100 nM
[2]
  IC50: 10 to 100 nM

## Cc1nn(C(C)(C)C)c(C)c1CCN1CCc2cc(O)c(N3CC(=O)NS3(=O)=O)c(F)c2C1 [Compound 266]
[5]
  IC50: 1 to 10 nM
[2]
  IC50: 1 to 10 nM
